In US20100216825A1, “FUNGICIDAL COMPOSITIONS” (SYNGENTA CROP PROTECTION, INC., priority 2006, published 2010):
“And” between values parts separate entries of the source, which are not always exact repeats. Identical values can stand only once. Like-named read-outs stand apart in the source and are kept apart here.

Assays:
Format in all cases: cell-based
Alternaria solani = assay: Action against Alternaria solani (early blight), growth inhibition in nutrient broth (microtiter plate, photometric); settings: 24° C., 48 hrs
Pyrenophora teres = assay: Action against Pyrenophora teres (net blotch), growth inhibition in nutrient broth (microtiter plate, photometric); settings: 24° C., 48 hrs
Botrytis cinerea = assay: Action against Botrytis cinerea, growth inhibition in nutrient broth (microtiter plate, photometric); settings: 24° C., 48-72 hrs
Pyricularia oryzae = settings: 24° C., 72 hrs
Pythium ultimum = assay: Action against Pythium ultimum (damping off), growth inhibition in nutrient broth (microtiter plate, photometric); settings: each active ingredient at 0.67 ppm [mg/L] final medium; 24° C., 48 hrs
[1] = each active ingredient at 0.02 ppm [mg/L] final medium

CC(C)C1C2CCC1c1c(NC(=O)c3cn(C)nc3C(F)F)cccc12 (racemic) [Cpd I, 3-difluoromethyl-1-methyl-1H-pyrazole-4-carboxylic acid (9-isopropyl-1,2,3,4-tetrahydro-1,4-methano-naphthalen-5-yl)-amide]
Observed control in % (% Cobs) observed (Alternaria solani; each active ingredient at 0.004 ppm [mg/L] final medium): 1% and 2% | Observed control in % (% Cobs) observed (Alternaria solani; each active ingredient at 0.008 ppm [mg/L] final medium): 5% and 2% | Observed control in % (% Cobs) observed (Alternaria solani; each active ingredient at 0.016 ppm [mg/L] final medium): 9% and 12% and 3% | Observed control in % (% Cobs) observed (Alternaria solani; [1]): 46% | Observed control in % (% Cobs) observed (Pyrenophora teres; each active ingredient at 0.5 ppm [mg/L] final medium): 70% | Observed control in % (% Cobs) observed (Pyrenophora teres; each active ingredient at 1 ppm [mg/L] final medium): 79% | Observed control in % (% Cobs) observed (Botrytis cinerea; [1]): 17% | Observed control in % (% Cobs) observed (Botrytis cinerea; each active ingredient at 0.07 ppm [mg/L] final medium): 61% | Observed control in % (% Cobs) observed (Botrytis cinerea; each active ingredient at 0.22 ppm [mg/L] final medium): 74% | Observed control in % (% Cobs) observed (Botrytis cinerea; each active ingredient at 0.67 ppm [mg/L] final medium): 79% | Observed control in % (% Cobs) observed (Pyricularia oryzae; each active ingredient at 0.01 ppm [mg/L] final medium): 11% | Observed control in % (% Cobs) observed (Pyricularia oryzae; [1]): 35% | Observed control in % (% Cobs) observed (Pythium ultimum): 0%
